Measured values: patent publication US20230301890A1, “COMPOSITIONS COMPRISING UROLITHINS” (Amazentis SA, priority 2022, published 2023)

System: 3D reconstituted human epidermis (RHE)
Assay: Gene expression in 3D reconstituted human epidermis after daily cream application
Assay type: cell-based
Conditions: UA 1% moisturizing cream daily for 3 days, vs Vehicle
Description: Finally, we employed a model of 3D reconstituted human epidermis (RHE) applied daily with the UA 1% moisturizing cream for 3 days.

Structure (SMILES): O=c1oc2cc(O)ccc2c2ccc(O)cc12 [Urolithin A]
- MMP1 and MMP3 gene expression: No change
- mitophagy and autophagy genes: early activation
